Test results taken from patent US20230151025A1, “SUBSTITUTED THIAZOLOPYRIDINES, SALTS THEREOF AND THEIR USE AS HERBICIDALLY ACTIVE SUBSTANCES” (Bayer Aktiengesellschaft, priority 2020, published 2023).

Columns and labels:
Format in all cases: in vivo
Poa annua (POAAN) [1] = assay: Herbicidal pre-emergence action (A), 1280 g/ha; details: visual grading after ca. 3 weeks vs untreated controls, 100% = plants have died off, 0% = as control plants
Description: (§1) ABUTH: Abutilon theophrasti AGSTE: Agrostis tenuis ALOMY: Alopecurus myosuroides AMARE Amaranthus retroflexus DIGSA: Digitaria sanguinalis ECHCG: Echinochloa crus-galli KCHSC: Kochia scoparia LOLRI: Lolium rigidum MATIN: Matricaria inodora POAAN: Poa annua POLCO: Polygonum convolvulus SETVI: Setaria viridis STEME: Stellaria media VERPE: Veronica persica VIOTR: Viola tricolor
(§2) Seeds of mono- and dicotyledonous weed plants were sown in plastic pots (double sowings with one species of mono- and one species of dicotyledonous weed plants per pot), in sandy loam, and covered with soil. The compounds according to the invention, formulated in the form of wettable powders (WP) or as emulsifiable concentrates (EC), were applied to the surface of the covering soil as aqueous suspension or emulsion, with the addition of 0.5% of an additive, at an application rate of 600 l of water per hectare (converted). Following treatment, the pots were placed in a greenhouse and kept under optimum growth conditions for the test plants. The visual grading of the damage to the test plants was carried out after ca. 3 weeks in comparison to untreated controls (herbicidal effect in percent (%): 100% effect=plants have died off, 0% effect=as control plants).
(§3) Tables A1 to A12, below, show the effects of selected compounds of the general formula (I) according to table 1 on various harmful plants and an application rate corresponding to 1280 g/ha obtained by the experimental procedure mentioned above.

Veronica persica (VERPE) [2] = assay: Herbicidal post-emergence action (B), 1280 g/ha
Description: as §1
(§4) Seeds of mono- and dicotyledonous weed plants were placed in plastic pots in sandy loam soil (doubly sown with in each case one species of mono- or dicotyledonous weed plants per pot), covered with soil and cultivated in a greenhouse under controlled growth conditions. 2 to 3 weeks after sowing, the test plants were treated at the one-leaf stage. The compounds of the invention, formulated in the form of wettable powders (WP) or as emulsion concentrates (EC), were applied onto the green parts of the plants as aqueous suspension or emulsion with addition of 0.5% additive at a water application rate of 600 liters per hectare (converted). After the test plants had been kept in the greenhouse under optimum growth conditions for about 3 weeks, the activity of the preparations was rated visually in comparison to untreated controls. For example, 100% activity=the plants have died, 0% activity=like control plants.
(§5) Tables B1 to B12, below, show the effects of selected compounds of the general formula (I) according to table 1 on various harmful plants and an application rate corresponding to 1280 g/ha obtained by the experimental procedure mentioned above.

[3] = test system: Abutilon theophrasti (ABUTH); assay: Herbicidal post-emergence action (B), 1280 g/ha; details: rated visually after about 3 weeks vs untreated controls
Description: as §1, §4, §5

[4] = test system: Kochia scoparia (KCHSC; Bassia scoparia); assay: Herbicidal post-emergence action (B), 1280 g/ha
Description: as §1, §4, §5

[5] = test system: Amaranthus retroflexus (AMARE); assay: Herbicidal post-emergence action (B), 1280 g/ha; details: rated visually after about 3 weeks vs untreated controls
Description: as §1, §4, §5

Setaria viridis (SETVI) = assay: Herbicidal pre-emergence action (A), 1280 g/ha; details: visual grading after ca. 3 weeks vs untreated controls
Description: as §1, §2, §3

[6] = test system: Kochia scoparia (KCHSC; Bassia scoparia); assay: Herbicidal pre-emergence action (A), 1280 g/ha; details: visual grading after ca. 3 weeks vs untreated controls
Description: as §1, §2, §3

[7] = test system: Digitaria sanguinalis (DIGSA); assay: Herbicidal pre-emergence action (A), 1280 g/ha; details: visual grading after ca. 3 weeks vs untreated controls, 100% = plants have died off, 0% = as control plants
Description: as §1, §2, §3

Veronica persica (VERPE) [8] = assay: Herbicidal pre-emergence action (A), 1280 g/ha; details: visual grading after ca. 3 weeks vs untreated controls
Description: as §1, §2, §3

[9] = test system: Matricaria inodora (MATIN); assay: Herbicidal pre-emergence action (A), 1280 g/ha; details: visual grading after ca. 3 weeks vs untreated controls
Description: as §1, §2, §3

[10] = test system: Alopecurus myosuroides (ALOMY); assay: Herbicidal pre-emergence action (A), 1280 g/ha; details: visual grading after ca. 3 weeks vs untreated controls, 100% = plants have died off, 0% = as control plants
Description: as §1, §2, §3

[11] = test system: Amaranthus retroflexus (AMARE); assay: Herbicidal pre-emergence action (A), 1280 g/ha; details: visual grading after ca. 3 weeks vs untreated controls
Description: as §1, §2, §3

Stellaria media (STEME) [12] = assay: Herbicidal pre-emergence action (A), 1280 g/ha; details: visual grading after ca. 3 weeks vs untreated controls
Description: as §1, §2, §3

[13] = test system: Echinochloa crus-galli (ECHCG); assay: Herbicidal pre-emergence action (A), 1280 g/ha; details: visual grading after ca. 3 weeks vs untreated controls, 100% = plants have died off, 0% = as control plants
Description: as §1, §2, §3

[14] = test system: Echinochloa crus-galli (ECHCG); assay: Herbicidal post-emergence action (B), 1280 g/ha; details: rated visually after about 3 weeks vs untreated controls
Description: as §1, §4, §5

Lolium rigidum (LOLRI) = assay: Herbicidal pre-emergence action (A), 1280 g/ha; details: visual grading after ca. 3 weeks vs untreated controls, 100% = plants have died off, 0% = as control plants
Description: as §1, §2, §3

Stellaria media (STEME) [15] = assay: Herbicidal post-emergence action (B), 1280 g/ha
Description: as §1, §4, §5

Poa annua (POAAN) [16] = assay: Herbicidal post-emergence action (B), 1280 g/ha; details: rated visually after about 3 weeks vs untreated controls
Description: as §1, §4, §5

[17] = test system: Alopecurus myosuroides (ALOMY); assay: Herbicidal post-emergence action (B), 1280 g/ha; details: rated visually after about 3 weeks vs untreated controls
Description: as §1, §4, §5

Compound | POAAN, herbicidal effect in percent (%) (Poa annua (POAAN) [1]) | herbicidal effect VERPE (Veronica persica (VERPE) [2]) | herbicidal activity ABUTH [3] | herbicidal effect KCHSC [4] | herbicidal activity AMARE [5] | herbicidal effect SETVI (Setaria viridis (SETVI)) | herbicidal effect KCHSC [6] | DIGSA, herbicidal effect in percent (%) [7] | herbicidal effect VERPE (Veronica persica (VERPE) [8]) | herbicidal effect MATIN [9] | ALOMY, herbicidal effect in percent (%) [10] | herbicidal effect AMARE [11] | herbicidal effect STEME (Stellaria media (STEME) [12]) | ECHCG, herbicidal effect in percent (%) [13] | herbicidal activity ECHCG [14] | LOLRI, herbicidal effect in percent (%) (Lolium rigidum (LOLRI)) | herbicidal effect STEME (Stellaria media (STEME) [15]) | herbicidal activity POAAN (Poa annua (POAAN) [16]) | herbicidal activity ALOMY [17]
COC(=O)c1nc2nc(-c3ccccc3F)c(Br)cc2s1 [Example I-054, methyl 6-bromo-5-(2-fluorophenyl)thiazolo[4,5-b]pyridine-2-carboxylate] | 100% | 90% | 90% | 90% | 100% | – | – | – | – | – | – | – | – | – | – | – | – | – | –
CCc1cc2sc(S(C)(=O)=O)nc2nc1-c1ccccc1F [Example I-059] | 100% | 100% | 100% | 90% | 100% | 100% | 90% | 100% | – | – | – | – | – | – | – | – | – | – | –
Cc1cscc1-c1nc2ncsc2cc1Br [Example I-141] | 100% | 90% | – | 90% | 90% | 100% | – | – | 90% | 90% | 100% | 90% | 90% | 100% | 90% | – | – | – | –
Cc1ccccc1-c1nc2ncsc2cc1Cl [Example I-083] | 100% | 90% | – | 90% | 100% | 100% | – | 100% | 100% | – | 100% | – | 100% | 100% | – | 100% | 100% | – | –
CCOc1nc2nc(-c3ccccc3C)c(CC)cc2s1 [Example I-055] | 100% | – | – | – | – | 100% | 100% | – | – | – | – | – | 90% | 100% | 90% | 90% | – | 100% | –
Cc1cc2sc([S+](C)[O-])nc2nc1-c1ccccc1F (stereo not drawn) [Example I-104] | 100% | 100% | – | 100% | 90% | 100% | 100% | 100% | 90% | 90% | – | 90% | 90% | – | – | – | – | – | –
Fc1ccccc1-c1nc2nc(Cl)sc2cc1Br [Example I-053, 6-bromo-2-chloro-5-(2-fluorophenyl)thiazolo[4,5-b]pyridine] | 100% | – | 90% | 90% | – | – | 90% | 100% | – | – | – | – | 100% | – | – | – | 100% | – | 100%
Cc1sccc1-c1ccc2scnc2n1 [Example I-133] | 90% | – | 90% | – | 90% | 100% | 90% | – | 90% | – | 100% | 90% | 90% | 100% | 90% | 100% | – | 100% | –
Cc1cc2scnc2nc1-c1sc(Br)cc1C [Example I-198] | 100% | 100% | – | 90% | – | 100% | – | – | 90% | – | 100% | – | 90% | 100% | – | 90% | – | – | 90%
